The values below come from patent US9095631B2, “Tetrahydroisoquinoline compounds for use in the diagnosis and treatment of neurodegenerative diseases” (UNIVERSITA DEGLI STUDI DI BARI “ALDO MORO”, priority 2011, dated 2015).

pEC50: −log10 of the molar value. Where only a bound is given, the exact number is not on record here.

What is called pEC50 is −log10 of the EC50, conventionally taken in molar units. The efflux ratio is the permeability from basolateral to apical divided by that in the opposite direction, in the common usage.

One data set addresses T1, MRP1 (Homo sapiens, UniProt P33527).
T1 construct: expressed in transfected cells; host or cells: MDCK
The data set is described as follows: Inhibition of the transport of Calcein-AM on MDCK cell lines overexpressing MDR proteins (MRP1). The data set is classed as cell-based. As to conditions: for pEC50: Calcein-AM transport inhibition, MDCK cells overexpressing MRP1. On the procedure:
(§1) 3) Inhibition of the Transport of Calceina-AM and of Rhodamine-123 on MDCK Cell Lines Overexpressing MDR Proteins.
(§2) In this assay the inhibition of the transport of a BCRP fluorescent substrate, Rhodamina-123, or of a P-gp or MRP1 profluorescent substrate, Calcein-AM, is determined.
(§3) Calcein-AM, entering the cell membrane is […] by citosolic esterase to fluorescent calcein (that is not a P-gp substrate) leading to a fluorescent signal. Therefore, the inhibition of the efflux pump will be directly correlated to the fluorescent signal due to the cell accumulation of Calcein-AM (see Feng, B., et al., 2008; Drug Metab. Dispos. 36, 268-275).

In data set [1] the target is T2, P-gp (Homo sapiens, UniProt P08183). The data set is described as follows: Apparent Permeability Determination (Papp) on Caco-2 cells overexpressing P-gp. The data set is classed as in vitro ADME. Conditions: ratio Papp-BA/Papp-AB, 18-20 transported by P-gp, 2-18 modulator, 1-2 not transported. The procedure: 1) Apparent Permeability Determination (Papp)
T2 sequence (P08183 whole entry): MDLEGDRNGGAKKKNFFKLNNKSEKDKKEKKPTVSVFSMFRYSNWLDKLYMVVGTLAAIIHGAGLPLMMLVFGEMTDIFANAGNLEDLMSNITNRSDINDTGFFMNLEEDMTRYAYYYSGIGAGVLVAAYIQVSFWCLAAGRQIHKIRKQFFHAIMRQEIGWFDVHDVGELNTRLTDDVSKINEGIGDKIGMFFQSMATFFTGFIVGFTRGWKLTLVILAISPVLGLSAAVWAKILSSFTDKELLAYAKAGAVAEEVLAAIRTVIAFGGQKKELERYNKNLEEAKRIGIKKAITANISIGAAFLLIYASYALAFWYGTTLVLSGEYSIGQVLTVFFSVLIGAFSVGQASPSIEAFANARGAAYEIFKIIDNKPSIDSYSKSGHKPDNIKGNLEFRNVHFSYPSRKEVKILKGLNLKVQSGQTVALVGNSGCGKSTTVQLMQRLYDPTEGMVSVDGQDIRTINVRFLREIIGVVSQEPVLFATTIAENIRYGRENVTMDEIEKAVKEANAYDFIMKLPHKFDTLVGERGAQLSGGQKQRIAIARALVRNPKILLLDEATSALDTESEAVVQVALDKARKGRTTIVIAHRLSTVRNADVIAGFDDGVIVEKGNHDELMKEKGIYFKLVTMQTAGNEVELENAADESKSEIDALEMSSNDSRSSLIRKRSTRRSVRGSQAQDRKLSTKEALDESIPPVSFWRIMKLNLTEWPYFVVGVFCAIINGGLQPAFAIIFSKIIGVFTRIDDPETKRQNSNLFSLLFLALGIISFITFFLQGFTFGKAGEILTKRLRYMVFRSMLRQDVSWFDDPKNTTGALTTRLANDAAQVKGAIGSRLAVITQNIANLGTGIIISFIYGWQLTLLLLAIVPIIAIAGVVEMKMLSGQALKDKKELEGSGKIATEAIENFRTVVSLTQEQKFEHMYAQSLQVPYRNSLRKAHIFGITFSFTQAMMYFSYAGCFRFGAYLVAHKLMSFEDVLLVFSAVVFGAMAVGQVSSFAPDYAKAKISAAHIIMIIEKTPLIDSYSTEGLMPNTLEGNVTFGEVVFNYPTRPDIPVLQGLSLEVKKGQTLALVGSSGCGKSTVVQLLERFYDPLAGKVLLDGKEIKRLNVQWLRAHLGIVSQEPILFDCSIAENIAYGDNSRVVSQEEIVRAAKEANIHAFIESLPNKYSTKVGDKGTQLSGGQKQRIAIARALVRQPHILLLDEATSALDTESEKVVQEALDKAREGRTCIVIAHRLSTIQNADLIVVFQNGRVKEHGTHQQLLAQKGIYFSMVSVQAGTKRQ
This assay is carried out on colon adenocarcinoma cell line (Caco-2) overexpressing P-gp, a cell model usually employed for the permeability study. In this experiment Apparent Permeability (Papp) is determined both in basolateral/apical direction (Papp-BA) and in apical/basolateral direction (Papp-AB). The BA/AB ratio allow to discriminate if a ligand is transported by P-gp (BA/AB ratio between 18 and 20), or not (BA/AB ratio between 1 and 2). For BA/AB ratio between 2 and 18 compounds can be classified as modulators (see Polli, J. V et al., 2001, J. Pharmacol. Exp. Ther. 299, 620-628).

Data set [2] deals with T2, P-gp. As to the kind of experiment: Inhibition of the transport of Calcein-AM on MDCK cell lines overexpressing MDR proteins (P-gp). The data set is classed as cell-based. Further details: expressed in transfected cells; host or cells: MDCK. As to conditions: MDCK cells overexpressing P-gp. On the procedure:
as §1, §2, §3

T1 sequence (P33527 whole entry): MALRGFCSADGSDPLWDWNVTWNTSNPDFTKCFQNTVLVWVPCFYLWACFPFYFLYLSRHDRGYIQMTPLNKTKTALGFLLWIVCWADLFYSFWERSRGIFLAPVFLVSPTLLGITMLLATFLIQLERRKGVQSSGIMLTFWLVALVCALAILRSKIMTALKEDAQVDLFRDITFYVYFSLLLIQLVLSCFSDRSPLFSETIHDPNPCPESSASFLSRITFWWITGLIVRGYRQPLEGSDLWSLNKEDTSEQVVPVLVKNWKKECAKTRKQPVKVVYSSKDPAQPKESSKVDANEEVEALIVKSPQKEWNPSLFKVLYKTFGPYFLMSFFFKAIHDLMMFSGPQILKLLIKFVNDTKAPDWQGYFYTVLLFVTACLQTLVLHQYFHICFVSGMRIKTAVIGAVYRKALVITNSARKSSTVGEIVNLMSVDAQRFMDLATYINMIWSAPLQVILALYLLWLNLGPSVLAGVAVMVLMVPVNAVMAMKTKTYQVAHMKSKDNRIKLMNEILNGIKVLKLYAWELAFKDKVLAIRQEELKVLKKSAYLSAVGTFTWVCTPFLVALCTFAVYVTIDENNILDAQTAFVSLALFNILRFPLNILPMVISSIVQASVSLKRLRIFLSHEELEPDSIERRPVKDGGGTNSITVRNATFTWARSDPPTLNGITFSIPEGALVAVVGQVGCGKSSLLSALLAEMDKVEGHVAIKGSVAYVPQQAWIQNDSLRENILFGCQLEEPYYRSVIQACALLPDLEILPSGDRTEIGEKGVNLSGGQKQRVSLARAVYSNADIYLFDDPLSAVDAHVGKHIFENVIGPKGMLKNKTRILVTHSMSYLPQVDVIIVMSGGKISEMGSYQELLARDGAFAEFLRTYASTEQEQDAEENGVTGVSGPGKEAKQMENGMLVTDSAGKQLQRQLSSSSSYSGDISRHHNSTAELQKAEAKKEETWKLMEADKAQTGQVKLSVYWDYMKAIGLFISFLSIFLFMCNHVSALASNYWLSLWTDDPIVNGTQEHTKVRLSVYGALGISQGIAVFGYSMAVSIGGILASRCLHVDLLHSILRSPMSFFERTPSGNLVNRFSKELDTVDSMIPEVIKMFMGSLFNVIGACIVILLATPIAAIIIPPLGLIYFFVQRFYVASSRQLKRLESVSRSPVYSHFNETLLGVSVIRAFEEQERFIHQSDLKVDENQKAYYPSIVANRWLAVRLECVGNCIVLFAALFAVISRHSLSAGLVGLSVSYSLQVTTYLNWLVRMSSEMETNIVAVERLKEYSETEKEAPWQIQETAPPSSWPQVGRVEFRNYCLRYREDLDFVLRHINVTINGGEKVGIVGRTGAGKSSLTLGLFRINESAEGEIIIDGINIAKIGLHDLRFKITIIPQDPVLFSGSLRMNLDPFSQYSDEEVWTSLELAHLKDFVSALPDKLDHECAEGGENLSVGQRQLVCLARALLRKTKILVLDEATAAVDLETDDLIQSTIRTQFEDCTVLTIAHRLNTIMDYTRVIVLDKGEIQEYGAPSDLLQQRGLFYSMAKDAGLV

Regarding `COc1cc2c(cc1OC)CN(Cc1csc(-c3ccc4cc(Br)ccc4c3)n1)CC2` [R2 = H, R1 = Br, X = S, (2-((2-(2-Bromonaftalen-6-il)thiazol-4-il)metil)-1,2,3,4-tetraidro-6,7-dimetossiisochinolina], the results for the negative logarithm of the EC50 (pEC50) at MRP1 and on P-gp [2] were less than 4.00 and 5.43, respectively. For the same compound, at P-gp [1], the efflux ratio came to 6.
Take `COc1cc2c(cc1OC)CN(Cc1coc(-c3ccc4cc(F)ccc4c3)n1)CC2` [R2 = H, R1 = F, X = O, 2-((2-(2-fluoronaphthalen-6-yl)oxazol-4-yl)methyl)-1,2,3,4-tetrahydro-6,7-dimethoxyisoquinoline]: the results for the pEC50 at MRP1 and on P-gp [2] were 4.50 and 5.28, respectively. Moreover, the efflux ratio at P-gp [1] was 0.8.
For `COc1cc2c(cc1OC)CN(Cc1coc(-c3ccc4ccccc4c3)n1)CC2` [R2 = H, R1 = H, X = O, 1,2,3,4-tetrahydro-6,7-dimethoxy-2-((2-(naphthalen-6-yl)oxazol-4-yl)methyl)isoquinoline], the results for the negative logarithm of the EC50 (pEC50) on MRP1 and at P-gp [2] were 4.48 and 5.57, respectively. Besides, the efflux ratio on P-gp [1] is 0.4.
As to `COc1ccc2cc(-c3nc(CN4CCc5cc(OC)c(OC)cc5C4)cs3)ccc2c1` [R2 = H, R1 = OCH3, X = S, 1,2,3,4-tetrahydro-6,7-dimethoxy-2-((2-(2-methoxynaphthalen-6-yl)thiazol-4-yl)methyl)isoquinoline], the figures for the negative-log EC50 (pEC50) at MRP1 and at P-gp [2] were less than 4.00 and 6.00, respectively. For the same compound, the efflux ratio on P-gp [1] was 6.
On to `COc1cc2c(cc1OC)CN(Cc1coc(-c3ccc4cc(O)ccc4c3)n1)CC2` [R2 = H, R1 = OH, X = O, 2-((2-(2-hydroxynaphthalen-6-yl)oxazol-4-yl)methyl)-1,2,3,4-tetrahydro-6,7-dimethoxyisoquinoline], for which, at MRP1, the “activity towards MRP1 (in words)” value is “inactive” and the pEC50 is less than 4.00. Further, on P-gp [1], the efflux ratio came to 1.6. On P-gp [2], the pEC50 was 5.55.
